From patent US9133158B2, “Bicyclic dihydroisoquinoline-1-one derivatives” (Hoffmann-La Roche Inc., priority 2011, dated 2015)

Assays:
[1] = biological target: T1, human CYP11B1 (Homo sapiens, UniProt P15538); test: G-402 cellular enzyme assay, human CYP11B1 (cortisol release, HTRF); format: cell-based; settings: G-402 cells, 1 μM Deoxycortisol
T1 construct: expressed in transfected cells
T1 sequence (P15538 25-503): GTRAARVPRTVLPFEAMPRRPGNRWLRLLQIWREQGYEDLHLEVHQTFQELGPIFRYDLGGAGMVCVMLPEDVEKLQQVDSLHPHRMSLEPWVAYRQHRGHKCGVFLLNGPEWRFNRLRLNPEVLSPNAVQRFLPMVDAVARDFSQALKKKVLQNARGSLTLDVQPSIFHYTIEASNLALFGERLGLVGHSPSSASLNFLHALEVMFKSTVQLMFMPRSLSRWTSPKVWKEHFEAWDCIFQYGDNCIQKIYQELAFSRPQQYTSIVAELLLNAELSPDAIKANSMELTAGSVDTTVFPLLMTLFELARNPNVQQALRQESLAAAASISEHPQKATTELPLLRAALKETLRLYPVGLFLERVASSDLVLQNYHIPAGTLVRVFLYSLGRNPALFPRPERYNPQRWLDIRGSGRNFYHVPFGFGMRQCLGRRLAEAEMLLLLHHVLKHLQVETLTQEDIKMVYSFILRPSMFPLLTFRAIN
Procedure, shortened: (§1)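 Steroid output from supernatants, quantified by HTRF as cortisol for CYP11B1 or aldosterone for CYP11B2, gave EC50 values by least-squares 4-parameter MMF fitting against inhibitor concentration. Stably transfected G-402 cells carrying the human enzyme received 1 μM deoxycortisol or 1 μM deoxycorticosterone respectively, 16 h, DMEM/F12 with 2.5% charcoal-stripped FCS.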

[2] = biological target: T2, human CYP11B2 (Homo sapiens, UniProt P19099); test: G-402 cellular enzyme assay, human CYP11B2 (aldosterone release, HTRF); format: cell-based; settings: G-402 cells, 1 μM Deoxycorticosterone
T2 construct: expressed in transfected cells
T2 sequence (P19099 25-503): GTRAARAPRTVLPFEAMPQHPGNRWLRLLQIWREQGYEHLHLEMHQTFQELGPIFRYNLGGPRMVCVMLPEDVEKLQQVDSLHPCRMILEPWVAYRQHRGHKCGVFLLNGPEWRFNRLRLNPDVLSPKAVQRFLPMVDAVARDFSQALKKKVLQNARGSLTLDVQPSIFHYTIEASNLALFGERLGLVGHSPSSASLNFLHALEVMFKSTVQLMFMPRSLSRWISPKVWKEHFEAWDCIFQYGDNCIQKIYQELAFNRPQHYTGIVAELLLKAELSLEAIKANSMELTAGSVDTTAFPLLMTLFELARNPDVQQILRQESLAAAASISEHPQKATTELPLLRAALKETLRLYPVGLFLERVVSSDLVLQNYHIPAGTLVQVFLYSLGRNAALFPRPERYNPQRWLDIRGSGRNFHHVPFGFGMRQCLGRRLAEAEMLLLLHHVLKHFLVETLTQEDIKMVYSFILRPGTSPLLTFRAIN
Procedure, shortened: as §1

## COC[C@@H]1CCCN1Cc1cncc(N2CCc3cc(Cl)ccc3C2=O)c1 [Example 48, 6-Chloro-2-[5-((S)-2-methoxymethyl-pyrrolidin-1-ylmethyl)-pyridin-3-yl]-3,4-dihydro-2H-isoquinolin-1-one]
[1]
  EC50: 1.11 µM
[2]
  EC50: 0.141 µM

## COC[C@@H]1CCCN1c1cncc(N2CCc3cc(Cl)ccc3C2=O)c1 [Example 49, 6-Chloro-2-[5-((S)-2-methoxymethyl-pyrrolidin-1-yl)-pyridin-3-yl]-3,4-dihydro-2H-isoquinolin-1-one]
[1]
  EC50: 0.188 µM
[2]
  EC50: 0.0496 µM

## O=C1c2ccc(Cl)cc2CCN1c1cccnn1 [Example 52, 6-Chloro-2-pyridazin-3-yl-3,4-dihydro-2H-isoquinolin-1-one]
[1]
  EC50: 2.46 µM
[2]
  EC50: 0.382 µM

## O=c1c2ccc(Cl)cc2ccn1-c1cccnc1 [Example 53, 6-Chloro-2-pyridin-3-yl-2H-isoquinolin-1-one]
[1]
  EC50: 10.8 µM
[2]
  EC50: 0.12 µM

## CC(O)c1ccncc1N1CCc2cc(Cl)ccc2C1=O (stereo not shown) [Example 55, 6-Chloro-2-[4-(1-hydroxy-ethyl)-pyridin-3-yl]-3,4-dihydro-2H-isoquinolin-1-one]
[1]
  EC50: 9.85 µM
[2]
  EC50: 0.343 µM

## O=C1c2ccc(Cl)cc2CCN1c1cnccc1CO [Example 56, 6-Chloro-2-(4-hydroxymethyl-pyridin-3-yl)-3,4-dihydro-2H-isoquinolin-1-one; compound with trifluoro-acctic acid]
[1]
  EC50: 13.8 µM
[2]
  EC50: 0.297 µM

## NC1(c2cncc(N3CCc4cc(Cl)ccc4C3=O)c2)CC1 [Example 57, 2-[5-(1-Amino-cyclopropyl)-pyridin-3-yl]-6-chloro-3,4-dihydro-2H-isoquinolin-1-one]
[1]
  EC50: 8 µM
[2]
  EC50: 1.28 µM

## CSc1cncc(N2CCc3cc(Cl)ccc3C2=O)c1 [Example 59, 6-Chloro-2-(5-methylsulfanyl-pyridin-3-yl)-3,4-dihydro-2H-isoquinolin-1-one]
[1]
  EC50: 0.135 µM
[2]
  EC50: 0.0081 µM

## O=C1c2ccc(Cl)cc2CCN1c1cncc(OC(F)F)c1 [Example 60, 6-Chloro-2-(5-difluoromethoxy-pyridin-3-yl)-3,4-dihydro-2H-isoquinolin-1-one]
[1]
  EC50: 0.794 µM
[2]
  EC50: 0.0707 µM

## O=C1c2ccc(Cl)cc2CCN1c1cnccc1C(O)c1ccc(F)cc1 (stereo not shown) [Example 63, 6-Chloro-2-{4-[(4-fluoro-phenyl)-hydroxy-methyl]-pyridin-3-yl}-3,4-dihydro-2H-isoquinolin-1-one]
[1]
  EC50: 4.43 µM
[2]
  EC50: 0.448 µM

## COC(C)c1ccncc1N1CCc2cc(Cl)ccc2C1=O (stereo not shown) [Example 64, 6-Chloro-2-[4-(1-methoxy-ethyl)-pyridin-3-yl]-3,4-dihydro-2H-isoquinolin-1-one]
[1]
  EC50: 6.31 µM
[2]
  EC50: 0.127 µM

## Cn1ccc2cncc(N3CCc4cc(Cl)ccc4C3=O)c21 [Example 65, 6-Chloro-2-(1-methyl-1H-pyrrolo[3,2-c]pyridin-7-yl)-3,4-dihydro-2H-isoquinolin-1-one]
[1]
  EC50: 2.35 µM
[2]
  EC50: 0.0973 µM

## O=C1c2ccc(Cl)cc2CCN1c1cncc(C2CC2)c1 [Example 66, 6-Chloro-2-(5-cyclopropyl-pyridin-3-yl)-3,4-dihydro-2H-isoquinolin-1-one]
[1]
  EC50: 0.0697 µM
[2]
  EC50: 0.0069 µM

## Cn1ncnc1-c1cncc(N2CCc3cc(Cl)ccc3C2=O)c1 [Example 67, 6-Chloro-2-[5-(2-methyl-2H-[1,2,4]triazol-3-yl)-pyridin-3-yl]-3,4-dihydro-2H-isoquinolin-1-one]
[1]
  EC50: 1.2 µM
[2]
  EC50: 0.102 µM

## O=C1c2ccc(Cl)cc2CCN1c1cncc(OC2CC2)c1 [Example 68, 6-Chloro-2-(5-cyclopropoxy-pyridin-3-yl)-3,4-dihydro-2H-isoquinolin-1-one]
[1]
  EC50: 0.157 µM
[2]
  EC50: 0.0067 µM

## COCc1ccncc1N1CCc2cc(Cl)ccc2C1=O [Example 69, 6-Chloro-2-(4-methoxymethyl-pyridin-3-yl)-3,4-dihydro-2H-isoquinolin-1-one]
[1]
  EC50: 7.54 µM
[2]
  EC50: 0.154 µM

## CC(C)(O)c1c(F)cncc1N1CCc2cc(Cl)ccc2C1=O [Example 70, 6-Chloro-2-[5-fluoro-4-(1-hydroxy-1-methyl-ethyl)-pyridin-3-yl]-3,4-dihydro-2H-isoquinolin-1-one]
[1]
  EC50: 0.392 µM
[2]
  EC50: 0.46 µM

## Cc1ccnn1Cc1cncc(N2CCc3cc(Cl)ccc3C2=O)c1 [Example 71, 6-Chloro-2-[5-(5-methyl-pyrazol-1-ylmethyl)-pyridin-3-yl]-3,4-dihydro-2H-isoquinolin-1-one]
[1]
  EC50: 1.58 µM
[2]
  EC50: 0.0902 µM

## O=C1c2ccc(Cl)cc2CCN1c1cncc2cc[nH]c12 [Example 72, 6-Chloro-2-(1H-pyrrolo[3,2-c]pyridin-7-yl)-3,4-dihydro-2H-isoquinolin-1-one]
[1]
  EC50: 16.5 µM
[2]
  EC50: 0.588 µM

## O=C1c2ccc(Cl)cc2CCN1c1cncc2ccccc12 [Example 73, 6-Chloro-3,4-dihydro-[2,4′]biisoquinolinyl-1-one]
[1]
  EC50: 0.251 µM
[2]
  EC50: 0.0135 µM

## COCc1c(F)cncc1N1CCc2cc(Cl)ccc2C1=O [Example 75, 6-Chloro-2-(5-fluoro-4-methoxymethyl-pyridin-3-yl)-3,4-dihydro-2H-isoquinolin-1-one]
[1]
  EC50: 2.76 µM
[2]
  EC50: 0.166 µM

## COC(C)c1c(F)cncc1N1CCc2cc(Cl)ccc2C1=O (stereo not shown) [Example 76, 6-Chloro-2-[5-fluoro-4-(1-methoxy-ethyl)-pyridin-3-yl]-3,4-dihydro-2H-isoquinolin-1-one]
[1]
  EC50: 13.8 µM
[2]
  EC50: 0.492 µM

## CC(C)OCc1ccncc1N1CCc2cc(Cl)ccc2C1=O [Example 77, 6-Chloro-2-(4-isopropoxy-methyl-pyridin-3-yl)-3,4-dihydro-2H-isoquinolin-1-one]
[1]
  EC50: 12.8 µM
[2]
  EC50: 0.665 µM

## COC(c1ccncc1N1CCc2cc(Cl)ccc2C1=O)C1CC1 (stereo not shown) [Example 78, 6-Chloro-2-[4-(cyclopropyl-methoxy-methyl)-pyridin-3-yl]-3,4-dihydro-2H-isoquinolin-1-one]
[1]
  EC50: 1.45 µM
[2]
  EC50: 0.761 µM

## Cc1n[nH]c(C)c1-c1cncc(N2CCc3cc(Cl)ccc3C2=O)c1 [Example 79, 6-Chloro-2-[5-(3,5-dimethyl-1H-pyrazol-4-yl)-pyridin-3-yl]-3,4-dihydro-2H-isoquinolin-1-one]
[1]
  EC50: 0.034 µM
[2]
  EC50: 0.0051 µM

## Cc1ncn(C)c1-c1cncc(N2CCc3cc(Cl)ccc3C2=O)c1 [Example 80, 6-Chloro-2-[5-(3,5-dimethyl-3H-imidazol-4-yl)-pyridin-3-yl]-3,4-dihydro-2H-isoquinolin-1-one]
[1]
  EC50: 0.0581 µM
[2]
  EC50: 0.0047 µM

## O=C1c2ccc(Cl)cc2CCN1c1cncc(CN2CCCCS2(=O)=O)c1 [Example 81, 6-Chloro-2-[5-(1,1-dioxo-1λ^6-[1,2]thiazinan-2-ylmethyl)-pyridin-3-yl]-3,4-dihydro-2H-isoquinolin-1-one]
[1]
  EC50: 2.36 µM
[2]
  EC50: 0.178 µM

## O=C1c2ccc(Cl)cc2CCN1c1cncc(CN2CCCS2(=O)=O)c1 [Example 82, 6-Chloro-2-[5-(1,1-dioxo-1^λ6-isothiazolidin-2-ylmethyl)-pyridin-3-yl]-3,4-dihydro-2H-isoquinolin-1-one]
[1]
  EC50: 0.597 µM
[2]
  EC50: 0.0789 µM

## O=C1c2ccc(Cl)cc2CCN1c1cncc(CN2C(=O)CC[C@H]2CO)c1 [Example 83, 6-Chloro-2-[5-((S)-2-hydroxymethyl-5-oxo-pyrrolidin-1-ylmethyl)-pyridin-3-yl]-3,4-dihydro-2H-isoquinolin-1-one]
[1]
  EC50: 15.7 µM
[2]
  EC50: 0.59 µM

## COC(=O)[C@@H]1CCCN1Cc1cncc(N2CCc3cc(Cl)ccc3C2=O)c1 [Example 84, (S)-1-[5-(6-Chloro-1-oxo-3,4-dihydro-1H-isoquinolin-2-yl)-pyridin-3-ylmethyl]-pyrrolidine-2-carboxylic acid methyl ester]
[1]
  EC50: 4.83 µM
[2]
  EC50: 0.225 µM

## COc1cncc(N2C(=O)c3ccc(Cl)cc3CC2C)c1 (stereo not shown) [Example 85, 6-Chloro-2-(5-methoxy-pyridin-3-yl)-3-methyl-3,4-dihydro-2H-isoquinolin-1-one]
[1]
  EC50: 2.86 µM
[2]
  EC50: 0.0596 µM

## CC1Cc2cc(Cl)ccc2C(=O)N1c1cncc(CO)c1 (stereo not shown) [Example 86, 6-Chloro-2-(5-hydroxymethyl-pyridin-3-yl)-3-methyl-3,4-dihydro-2H-isoquinolin-1-one]
[1]
  EC50: 7.77 µM
[2]
  EC50: 0.377 µM
